According to PubChem BioAssay (NCI):
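Protocol summary: plate cells (96-well), add compound at 5 concentrations, incubate 48 h, interpolate endpoints linearly. GI50 is the concentration that inhibits growth by half. TGI denotes the concentration required for complete inhibition of growth.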

Columns and labels:
Assay in all cases: inhibition of tumour cell growth, NCI panel, 48 h
SNB-19 CNS = test system: SNB-19 CNS
PC-3 prostate = test system: PC-3 prostate
HOP-62 NSCLC = test system: HOP-62 NSCLC
HT29 colon = test system: HT29 colon
MCF7 breast = test system: MCF7 breast
SK-MEL-28 melanoma = test system: SK-MEL-28 melanoma
SW-620 colon = test system: SW-620 colon
M14 melanoma = test system: M14 melanoma
HCT-15 colon = test system: HCT-15 colon
NCI-H23 lung = test system: NCI-H23 lung
MDA-MB-231 breast = test system: MDA-MB-231 breast
SF-268 CNS = test system: SF-268 CNS
OVCAR-8 ovarian = test system: OVCAR-8 ovarian
UACC-62 melanoma = test system: UACC-62 melanoma
RXF 393 renal = test system: RXF 393 renal
SN12C renal = test system: SN12C renal
HCT-116 colon = test system: HCT-116 colon
SK-OV-3 ovarian = test system: SK-OV-3 ovarian
DU-145 prostate = test system: DU-145 prostate
RPMI-8226 leukemia = test system: RPMI-8226 leukemia
A549 NSCLC = test system: A549 NSCLC
786-0 renal = test system: 786-0 renal
MDA-MB-435 = test system: MDA-MB-435
A498 renal = test system: A498 renal
SK-MEL-2 melanoma = test system: SK-MEL-2 melanoma
COLO 205 colon = test system: COLO 205 colon
ACHN renal = test system: ACHN renal
OVCAR-4 ovarian = test system: OVCAR-4 ovarian
NCI-H460 lung = test system: NCI-H460 lung
CAKI-1 renal = test system: CAKI-1 renal
OVCAR-3 ovarian = test system: OVCAR-3 ovarian
T-47D breast = test system: T-47D breast
MALME-3M melanoma = test system: MALME-3M melanoma
SK-MEL-5 melanoma = test system: SK-MEL-5 melanoma
U251 CNS = test system: U251 CNS
NCI-H522 lung = test system: NCI-H522 lung
NCI/ADR-RES ovarian = test system: NCI/ADR-RES ovarian
UO-31 renal = test system: UO-31 renal
SF-539 CNS = test system: SF-539 CNS
SF-295 CNS = test system: SF-295 CNS
K-562 leukemia = test system: K-562 leukemia
SR leukemia = test system: SR leukemia
OVCAR-5 ovarian = test system: OVCAR-5 ovarian
HCC-2998 colon = test system: HCC-2998 colon
HOP-92 NSCLC = test system: HOP-92 NSCLC
KM12 colon = test system: KM12 colon
MOLT-4 leukemia = test system: MOLT-4 leukemia
HS 578T breast = test system: HS 578T breast
IGROV1 ovarian = test system: IGROV1 ovarian
TK-10 renal = test system: TK-10 renal
EKVX NSCLC = test system: EKVX NSCLC
BT-549 breast = test system: BT-549 breast
LOX IMVI melanoma = test system: LOX IMVI melanoma
SNB-75 CNS = test system: SNB-75 CNS

In the case of `OCCN=C1Nc2ccc(Cl)cc2C(=S)N2CSC[C@@H]12`, the TGI (SNB-19 CNS) is reported as over 100 µM, the TGI (PC-3 prostate) is reported as over 100 µM and the TGI (HOP-62 NSCLC) is reported as over 100 µM. The TGI (HT29 colon) was over 100 µM, the TGI (MCF7 breast) was over 100 µM and the TGI (SK-MEL-28 melanoma) was over 100 µM. It also gave a TGI (SW-620 colon) of over 100 µM, a TGI (M14 melanoma) of over 100 µM and a TGI (HCT-15 colon) of over 100 µM. The TGI (NCI-H23 lung) was over 100 µM, the TGI (MDA-MB-231 breast) was over 100 µM and the TGI (SF-268 CNS) was over 100 µM. It also gave a TGI (OVCAR-8 ovarian) of over 100 µM, a TGI (UACC-62 melanoma) of over 100 µM and a TGI (RXF 393 renal) of over 100 µM. It also gave a TGI (SN12C renal) of over 100 µM, a TGI (HCT-116 colon) of over 100 µM and a TGI (SK-OV-3 ovarian) of over 100 µM. It also gave a TGI (DU-145 prostate) of over 100 µM, a TGI (RPMI-8226 leukemia) of over 100 µM and a TGI (A549 NSCLC) of over 100 µM. The TGI (786-0 renal) was over 100 µM, the TGI (MDA-MB-435) was over 100 µM and the TGI (A498 renal) was over 100 µM. It also gave a TGI (SK-MEL-2 melanoma) of over 100 µM, a TGI (COLO 205 colon) of over 100 µM and a TGI (ACHN renal) of over 100 µM. For the same molecule, the TGI (OVCAR-4 ovarian) was over 100 µM, the TGI (NCI-H460 lung) was over 100 µM and the TGI (CAKI-1 renal) was over 100 µM. For the same molecule, the TGI (OVCAR-3 ovarian) was over 100 µM, the TGI (T-47D breast) was over 100 µM and the TGI (MALME-3M melanoma) was over 100 µM. It also gave a TGI (SK-MEL-5 melanoma) of over 100 µM, a TGI (U251 CNS) of over 100 µM and a TGI (NCI-H522 lung) of over 100 µM. For the same molecule, the TGI (NCI/ADR-RES ovarian) was over 100 µM, the TGI (UO-31 renal) was over 100 µM and the TGI (SF-539 CNS) was over 100 µM. It also gave a TGI (SF-295 CNS) of over 100 µM, a TGI (K-562 leukemia) of over 100 µM and a TGI (SR leukemia) of over 100 µM. It also gave a TGI (OVCAR-5 ovarian) of over 100 µM, a TGI (HCC-2998 colon) of over 100 µM and a TGI (HOP-92 NSCLC) of over 100 µM. It also gave a TGI (KM12 colon) of over 100 µM and a TGI (MOLT-4 leukemia) of over 100 µM.
`COc1cc(-c2nc3ccc(C)cc3[nH]2)ccc1OCC(=O)N=Nc1c(O)[nH]c2ccccc12` gave a GI50 (SNB-19 CNS) of 1.83 µM, a TGI (SNB-19 CNS) of 3.51 µM and a GI50 (HS 578T breast) of 2 µM. The TGI (HS 578T breast) was 4.77 µM, the GI50 (SK-MEL-28 melanoma) was 1.77 µM and the TGI (SK-MEL-28 melanoma) was 3.16 µM. It also gave a GI50 (SW-620 colon) of 0.769 µM, a TGI (SW-620 colon) of 2.37 µM and a GI50 (M14 melanoma) of 1.84 µM. For the same molecule, the TGI (M14 melanoma) was 3.56 µM, the GI50 (HCT-15 colon) was 4.18 µM and the TGI (HCT-15 colon) was over 100 µM. It also gave a GI50 (NCI-H23 lung) of 1.81 µM, a TGI (NCI-H23 lung) of 3.48 µM and a GI50 (IGROV1 ovarian) of 1.73 µM. The TGI (IGROV1 ovarian) was 3.48 µM, the GI50 (MDA-MB-231 breast) was 1.64 µM and the TGI (MDA-MB-231 breast) was 3.1 µM. It also gave a GI50 (UACC-62 melanoma) of 1.76 µM, a TGI (UACC-62 melanoma) of 3.31 µM and a GI50 (RXF 393 renal) of 1.65 µM. It also gave a TGI (RXF 393 renal) of 3.17 µM, a GI50 (TK-10 renal) of 3.21 µM and a TGI (TK-10 renal) of 11.1 µM. The GI50 (SN12C renal) was 1.68 µM, the TGI (SN12C renal) was 3.19 µM and the GI50 (HCT-116 colon) was 0.442 µM. The TGI (HCT-116 colon) was 1.66 µM, the GI50 (DU-145 prostate) was 2.05 µM and the TGI (DU-145 prostate) was 4.39 µM. It also gave a GI50 (786-0 renal) of 1.76 µM, a TGI (786-0 renal) of 3.24 µM and a GI50 (MDA-MB-435) of 1.63 µM. For the same molecule, the TGI (MDA-MB-435) was 3 µM, the GI50 (A498 renal) was 2.36 µM and the TGI (A498 renal) was 7.46 µM. The GI50 (ACHN renal) was 3.39 µM, the TGI (ACHN renal) was 13.6 µM and the GI50 (OVCAR-4 ovarian) was 1.75 µM. For the same molecule, the TGI (OVCAR-4 ovarian) was 3.25 µM, the GI50 (NCI-H460 lung) was 1.85 µM and the TGI (NCI-H460 lung) was 3.73 µM. The GI50 (EKVX NSCLC) was 12.7 µM, the TGI (EKVX NSCLC) was over 100 µM and the GI50 (CAKI-1 renal) was 1.66 µM. For the same molecule, the TGI (CAKI-1 renal) was 3.07 µM, the GI50 (OVCAR-3 ovarian) was 1.71 µM and the TGI (OVCAR-3 ovarian) was 3.21 µM. It also gave a GI50 (MALME-3M melanoma) of 1.68 µM, a TGI (MALME-3M melanoma) of 3.18 µM and a GI50 (BT-549 breast) of 2.26 µM. For the same molecule, the TGI (BT-549 breast) was 6.56 µM, the GI50 (SK-MEL-5 melanoma) was 1.82 µM and the TGI (SK-MEL-5 melanoma) was 3.52 µM. It also gave a GI50 (LOX IMVI melanoma) of 0.339 µM, a TGI (LOX IMVI melanoma) of 1.29 µM and a GI50 (SNB-75 CNS) of 1.07 µM. It also gave a TGI (SNB-75 CNS) of 2.91 µM, a GI50 (NCI/ADR-RES ovarian) of over 100 µM and a TGI (NCI/ADR-RES ovarian) of over 100 µM. The GI50 (UO-31 renal) was 12.5 µM, the TGI (UO-31 renal) was 96.4 µM and the GI50 (SF-539 CNS) was 1.62 µM. The TGI (SF-539 CNS) was 3.01 µM, the GI50 (SF-295 CNS) was 1.94 µM and the TGI (SF-295 CNS) was 3.82 µM. It also gave a GI50 (OVCAR-5 ovarian) of 1.83 µM, a TGI (OVCAR-5 ovarian) of 4.19 µM and a GI50 (HCC-2998 colon) of 1.86 µM. It also gave a TGI (HCC-2998 colon) of 3.31 µM, a GI50 (HOP-92 NSCLC) of 1.56 µM and a TGI (HOP-92 NSCLC) of 3.28 µM. The GI50 (KM12 colon) was 1.83 µM and the TGI (KM12 colon) was 3.54 µM.
